# Entries after “also recorded” stand apart in the source; their conditions may differ.
# Columns and labels:
# liver = test: Serum ALT/AST after 2 weeks of inhaled EL244; type: in vivo, mice; conditions: 2 weeks inhaled 15 mg/kg o.d.
# Method: Figure S7. Inhaled prophylactic EL244 administration attenuates BLM-induced pulmonary fibrosis. Related to […]
# EL244 was administered via inhalation at 15 mg/kg, once daily, from one day before to 14 days after bleomycin (BLM) administration (day 0). The compound was dissolved in 15% Kolliphor in saline. The vehicle (15% Kolliphor in saline) was administered to both the SAL and BLM control groups.
# (A) Weight change in the different mouse groups during the 2 weeks of the pulmonary fibrosis experiment.
# (B-D) Respiratory mechanics assessed using the FlexiVent system (n=6,8,7). Parameters include mean static lung compliance (B), mean respiratory system compliance (C) and mean total lung capacity (D).
# (E) Total protein concentration in BALFs, as determined with the Bradford assay (n=6,8,7).
# (F) Inflammatory cell numbers in BALFs, as counted with a hematocytometer (n=6,8,7).
# (G) Soluble collagen levels in the BALFs were detected with the direct red assay (n=6,8,7). […]
# (J) Quantification of fibrosis severity in H&E-stained lung sections via Ashcroft scoring (n=6,8,7). […]
# Following normality testing, statistical significance was assessed with one-way ANOVA and post-hoc Tukey’s test (B, C, D, E, K/ALT, K/ALT/AST) or Welch ANOVA and post-hoc Games-Howell test (F, G, H, J) or Kruskal Wallis and post-hoc Dunn’s test (K/AST); */**/***/**** denote p<0.05/0.01/0.001/0.0001, respectively.
# hERG = hERG (Homo sapiens, UniProt Q12809); test: hERG inhibition; type: biochemical
# [1] = Cytotoxicity in HepG2 hepatocytes; type: cell-based; conditions: human, HepG2 cells
# [2] = tested on: choline oxidase and horseradish peroxidase; test: Interference with the 2nd and 3rd reaction of the Amplex Red assay; type: biochemical
# Method: (§1) ATX inhibitory activity in vitro of examined compounds was assessed with the Amplex Red assay,[32]^,[35]^,[36] as recently published in detail.[37] The assay was done in Amplex Red Assay buffer (Tris 50 mM, CaCl2 5 mM, pH 8). Briefly, 50 μL of increasing concentrations of each compound were placed in separate wells of a black 96-well plate. […] 50 μL of the LPC-containing assay buffer (200 μM) were added to the wells and incubated for 30 min at 37°C to allow the enzyme to initially interact with its substrate. 50 μL of the detection mix (Amplex Red 200 μM, choline oxidase 0.4 U/mL, horseradish peroxidase 4 U/mL) were added to the plate wells. Fluorescence was measured in a Tecan M200 Fluorimeter using excitation at 530 nm and reading at 590 nm, every 5 min for 30 min. The velocity of the reaction and the remaining ATX activity were calculated at the linear phase of the reaction. Dose-response inhibition graphs were plotted with GraphPad Software.
# Figure S3. Kinetic analysis of ATX inhibition. Related to Figures 3 and 4
# (B) Kinetics for the second (oxidation of choline catalysed by choline oxidase) and third reaction (the conversion of the
# Amplex substrate to the fluorescent resorufin catalysed by horseradish peroxidase, HRP) of the Amplex Red Lyso-
# phospholipase D assay for representative compounds (TGZ, 4, 5 and EL244). The first reaction includes the conversion of
# LPC to LPA catalysed by ATX.
# Kinetic graphs are indicative of three technical replicates. […]
# ATX = molecular target: T1, ATX (Homo sapiens, UniProt Q13822); test: Amplex Red assay: ATX inhibitory activity in vitro; type: biochemical; conditions: in vitro; for IC50: Amplex Red assay
# T1 construct: purchased Sino Biological 11308-H07H
# Method: as §1
# Autotaxin = molecular target: T2, Autotaxin (Homo sapiens, UniProt Q13822); test: HDX-MS of Autotaxin with and without EL244; type: binding
# T2 construct: purchased Sino Biological 11308-H07H
# Method: All HDX experiments were performed using a dual head parallel Trajan LEAP automation system (Carrboro, NC, USA).[153] Briefly, 5μL of reconstituted Autotaxin (1.25mg/mL) with and without EL244, was diluted into 100μL of labeling buffer (10mM PBS, 150mM sodium chloride, pD = 7.4 in D2O). pD was determined using pH measurements with a glass electrode and corrected for the isotopic effect.[154] Samples were labeled in quadruplicate for each labeling time (30s, 300s and 3000s) at 25°C. For experiments with bounded Autotaxin, both the protein stock and labeling buffer contained 50μM of the ligand to ensure >95% bound protein during labeling.[155] Afterward, 100 μL of labeled samples were quenched by mixing with equal amounts of precooled quench buffer (100mM glycine, 3M urea, 0.5M TCEP, pH 2.3 in water) at 1°C and held at that temperature for 120s to improve disulfide bond reduction. Non-deuterated controls and initial peptide map samples were prepared identically but using 10mM PBS, 150mM sodium chloride, pH = 7.4 in water as labeling buffer. […] Peptide masses were measured using a Waters SELECT SERIES cyclic IMS QTOF system using positive mode ionization and single pass ion mobility. All HDX experiments were measured using HDMS mode while initial peptide maps used HDMSE with a collision energy ramp of 20-45v.[156] […]
# Sequence of hERG (Q12809 whole entry): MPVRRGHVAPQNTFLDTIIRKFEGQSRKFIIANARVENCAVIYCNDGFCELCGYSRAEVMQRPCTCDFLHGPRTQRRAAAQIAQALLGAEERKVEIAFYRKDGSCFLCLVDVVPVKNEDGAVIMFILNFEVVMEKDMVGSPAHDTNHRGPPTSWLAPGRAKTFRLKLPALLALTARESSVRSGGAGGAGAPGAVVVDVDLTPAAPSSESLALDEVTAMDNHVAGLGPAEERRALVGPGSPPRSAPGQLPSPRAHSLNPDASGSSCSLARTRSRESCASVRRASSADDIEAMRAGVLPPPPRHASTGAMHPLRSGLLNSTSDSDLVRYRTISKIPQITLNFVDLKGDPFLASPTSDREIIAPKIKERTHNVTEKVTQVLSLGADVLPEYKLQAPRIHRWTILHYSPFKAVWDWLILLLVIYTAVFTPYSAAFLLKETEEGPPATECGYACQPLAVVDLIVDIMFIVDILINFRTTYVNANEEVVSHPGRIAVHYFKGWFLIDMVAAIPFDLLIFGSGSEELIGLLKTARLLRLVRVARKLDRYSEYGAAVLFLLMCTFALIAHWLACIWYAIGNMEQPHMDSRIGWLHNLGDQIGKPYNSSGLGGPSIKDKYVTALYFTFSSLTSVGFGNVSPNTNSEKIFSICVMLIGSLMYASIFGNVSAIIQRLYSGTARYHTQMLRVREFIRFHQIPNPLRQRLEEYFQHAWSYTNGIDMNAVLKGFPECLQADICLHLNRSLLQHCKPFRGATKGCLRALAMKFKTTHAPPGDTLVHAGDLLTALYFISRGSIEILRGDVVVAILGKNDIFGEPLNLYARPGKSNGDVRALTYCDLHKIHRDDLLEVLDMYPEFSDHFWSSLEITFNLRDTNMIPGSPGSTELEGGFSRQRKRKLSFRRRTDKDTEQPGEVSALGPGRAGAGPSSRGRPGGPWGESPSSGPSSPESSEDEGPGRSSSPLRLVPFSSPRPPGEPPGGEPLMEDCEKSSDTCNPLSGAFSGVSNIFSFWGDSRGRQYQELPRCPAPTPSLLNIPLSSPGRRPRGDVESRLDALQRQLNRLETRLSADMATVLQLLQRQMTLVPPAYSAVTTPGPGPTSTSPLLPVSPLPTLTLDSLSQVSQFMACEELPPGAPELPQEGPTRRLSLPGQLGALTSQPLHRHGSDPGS
SMILES,Liver toxicity (ALT/AST levels) (liver),IC50 (hERG) [µM],"inhibition at 25 μM (hERG; human, 25 μΜ) [%]",CC50 [1] [µM],Interference on the 2nd and 3rd steps of the Amplex Red assay [2],IC50 (ATX) [µM],"ATX inhibitory effect, fold better than 5 (ATX) [fold]","ATX inhibitory effect, fold better than GLPG1690 (ATX) [fold]","ATX inhibitory effect, fold better than TGZ (ATX) [fold]","Binding site on ATX (Autotaxin; HDX-MS, protected region 214–289 mapped on 2XR9)",ATX inhibitor type (Autotaxin; HDX/MS and MD analysis)
"O=C1NC(=O)C(Cc2ccc(OCCC3CCN(C(=O)OCc4cc(Cl)cc(Cl)c4)CC3)cc2)S1 (centres unmarked) [EL244, 3,5-dichlorobenzyl 4-(2-(4-((2,4-dioxothiazolidin-5-yl)methyl)phenoxy)ethyl)piperidine-1-carboxylate]",did not cause any appreciable toxicity in the liver,> 25,~12,81.2,not involved at all in the second and third reaction,0.05,5,3,10,binds to the hydrophobic pocket and the allosteric tunnel of ATX,type IV ATX inhibitor
"O=C1NC(=O)C(Cc2ccc(OCCN3CCN(C(=O)OCc4cc(Cl)cc(Cl)c4)CC3)cc2)S1 (centres unmarked) [Compound 5, 3,5-dichlorobenzyl4-(2-(4-((2,4-dioxothiazolidin-5-yl)methyl)phenoxy)ethyl)piperazine-1-carboxylate]",–,–,–,90.3,Minimal interference; also recorded: not involved at all in the second and third reaction,0.29,–,–,–,–,–

# — paper PMC13198257, “An aerosolized dual-action autotaxin inhibitor-PPARγ agonist for the treatment of pulmonary fibrosis” (Cell Reports Medicine, 2026)
